How the values were obtained:
Details in all cases: substrate 3KB-G5-CNP, hydrolysis
[1] = target: T1, Saccharomycopsis fibuligera α-amylase (Sfamy), wild type (Saccharomycopsis fibuligera, UniProt P21567)
T1 sequence (P21567 27-494): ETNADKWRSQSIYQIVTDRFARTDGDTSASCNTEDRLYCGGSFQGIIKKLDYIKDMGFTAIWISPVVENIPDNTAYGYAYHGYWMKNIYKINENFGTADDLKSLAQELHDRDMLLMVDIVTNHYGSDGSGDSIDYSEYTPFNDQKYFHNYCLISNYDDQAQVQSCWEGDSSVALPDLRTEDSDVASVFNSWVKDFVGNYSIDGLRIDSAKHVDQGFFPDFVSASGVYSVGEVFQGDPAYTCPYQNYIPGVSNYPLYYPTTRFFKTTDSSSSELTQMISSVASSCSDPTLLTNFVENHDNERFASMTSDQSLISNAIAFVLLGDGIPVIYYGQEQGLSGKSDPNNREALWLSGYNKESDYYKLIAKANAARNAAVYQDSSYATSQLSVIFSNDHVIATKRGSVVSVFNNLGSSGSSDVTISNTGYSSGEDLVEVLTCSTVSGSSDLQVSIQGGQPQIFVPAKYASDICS
Procedure: (§1) Furthermore, using a substrate with both its non-reducing end terminus and its reducing end terminus modified, i.e. 3KB-G5 -CNP (chloronitrophenyl maltopentaose wherein the hydroxyl group at position 3 of the glucose residue at the non-reducing end terminus is ketobutylated; manufactured by Ono Pharmaceutical Company), the hydrolysis activities of the wild-type enzyme and the variant-type enzymes were determined. 3KB-G5 -CNP cannot function as a substrate for transglycosylation reaction because of the modification of both of the termini, and therefore, only the hydrolysis activity can be assayed.

[2] = target: Saccharomycopsis fibuligera α-amylase (Sfamy) variant SfamyY83F, Y83F, SEQ ID NO: 2 (Saccharomycopsis fibuligera, UniProt P21567, A249P/Y109F)
Saccharomycopsis fibuligera α-amylase (Sfamy) variant SfamyY83F, Y83F, SEQ ID NO: 2, sequence (P21567 27-494 Y109F/A249P): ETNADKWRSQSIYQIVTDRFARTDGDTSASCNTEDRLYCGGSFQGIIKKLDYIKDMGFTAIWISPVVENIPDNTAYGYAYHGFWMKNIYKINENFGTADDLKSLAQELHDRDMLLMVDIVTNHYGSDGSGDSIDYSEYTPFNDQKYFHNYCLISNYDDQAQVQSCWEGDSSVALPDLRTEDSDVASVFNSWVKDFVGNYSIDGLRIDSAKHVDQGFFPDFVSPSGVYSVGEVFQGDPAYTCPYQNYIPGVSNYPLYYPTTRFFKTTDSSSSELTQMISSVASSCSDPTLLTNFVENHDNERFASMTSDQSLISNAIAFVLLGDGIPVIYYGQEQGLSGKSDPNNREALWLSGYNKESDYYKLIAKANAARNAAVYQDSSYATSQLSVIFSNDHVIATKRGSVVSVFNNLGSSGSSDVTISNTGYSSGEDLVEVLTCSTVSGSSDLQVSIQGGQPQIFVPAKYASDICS
Procedure: as §1

[3] = target: Saccharomycopsis fibuligera α-amylase (Sfamy) variant SfamyY83W, Y83W, SEQ ID NO: 4 (Saccharomycopsis fibuligera, UniProt P21567, Y109W)
Saccharomycopsis fibuligera α-amylase (Sfamy) variant SfamyY83W, Y83W, SEQ ID NO: 4, sequence (P21567 27-494 Y109W): as the sequence (P21567 27-494 Y109F/A249P) above, with F83W, P223A counted along it
Procedure: as §1

[4] = target: Saccharomycopsis fibuligera α-amylase (Sfamy) variant SfamyY83L, Y83L, SEQ ID NO: 6 (Saccharomycopsis fibuligera, UniProt P21567, Y109L)
Saccharomycopsis fibuligera α-amylase (Sfamy) variant SfamyY83L, Y83L, SEQ ID NO: 6, sequence (P21567 27-494 Y109L): as the sequence (P21567 27-494 Y109F/A249P) above, with F83L, P223A counted along it
Procedure: as §1

[5] = target: Saccharomycopsis fibuligera α-amylase (Sfamy) variant SfamyY83N, Y83N, SEQ ID NO: 8 (Saccharomycopsis fibuligera, UniProt P21567, Y109N)
Saccharomycopsis fibuligera α-amylase (Sfamy) variant SfamyY83N, Y83N, SEQ ID NO: 8, sequence (P21567 27-494 Y109N): as the sequence (P21567 27-494 Y109F/A249P) above, with F83N, P223A counted along it
Procedure: as §1

## CC(=O)CC1OC[C@H]2O[C@H](O[C@H]3[C@H](O)[C@@H](O)[C@@H](O[C@H]4[C@H](O)[C@@H](O)[C@@H](O[C@H]5[C@H](O)[C@@H](O)[C@@H](O[C@H]6[C@H](O)[C@@H](O)[C@H](Oc7ccc([N+](=O)[O-])cc7Cl)O[C@@H]6CO)O[C@@H]5CO)O[C@@H]4CO)O[C@@H]3CO)[C@H](O)[C@@H](O)[C@@H]2O1 (stereo partly drawn) [3KB-G5 -CNP]
[1]
  Km: 60 µM
  kcat: 15.3 s⁻¹
  kcat/Km: 250000 M⁻¹ s⁻¹
[2]
  Km: 130 µM
  kcat: 2.5 s⁻¹
  kcat/Km: 20000 M⁻¹ s⁻¹
[3]
  Km: 150 µM
  kcat: 2.17 s⁻¹
  kcat/Km: 14500 M⁻¹ s⁻¹
[4]
  Km: 120 µM
  kcat: 0.183 s⁻¹
  kcat/Km: 1550 M⁻¹ s⁻¹
[5]
  Km: 190 µM
  kcat: 0.267 s⁻¹
  kcat/Km: 1430 M⁻¹ s⁻¹

Source: patent publication US5538882A, “Variant-type carbohydrate hydrolase, variant gene of the enzyme and method for producing oligosaccharide using the enzyme” (priority 1993, dated 1996)
